Laboratory results reported in the supplement of paper PMC6775116.

Tests used:
KIAA1804 = KIAA1804 (UniProt Q5TCX8); experiment: apparent dissociation constant (depletion-corrected kinobeads competition) (-log10 M (pKd app)); higher = tighter binding; conditions: lysate: K562 + HEK293 + human placenta lysate mix
BCR [1] = biological target: T1, BCR (UniProt P11274); experiment: as above; conditions: lysate: K562 + HEK293 + human placenta lysate mix
T1 sequence (whole entry): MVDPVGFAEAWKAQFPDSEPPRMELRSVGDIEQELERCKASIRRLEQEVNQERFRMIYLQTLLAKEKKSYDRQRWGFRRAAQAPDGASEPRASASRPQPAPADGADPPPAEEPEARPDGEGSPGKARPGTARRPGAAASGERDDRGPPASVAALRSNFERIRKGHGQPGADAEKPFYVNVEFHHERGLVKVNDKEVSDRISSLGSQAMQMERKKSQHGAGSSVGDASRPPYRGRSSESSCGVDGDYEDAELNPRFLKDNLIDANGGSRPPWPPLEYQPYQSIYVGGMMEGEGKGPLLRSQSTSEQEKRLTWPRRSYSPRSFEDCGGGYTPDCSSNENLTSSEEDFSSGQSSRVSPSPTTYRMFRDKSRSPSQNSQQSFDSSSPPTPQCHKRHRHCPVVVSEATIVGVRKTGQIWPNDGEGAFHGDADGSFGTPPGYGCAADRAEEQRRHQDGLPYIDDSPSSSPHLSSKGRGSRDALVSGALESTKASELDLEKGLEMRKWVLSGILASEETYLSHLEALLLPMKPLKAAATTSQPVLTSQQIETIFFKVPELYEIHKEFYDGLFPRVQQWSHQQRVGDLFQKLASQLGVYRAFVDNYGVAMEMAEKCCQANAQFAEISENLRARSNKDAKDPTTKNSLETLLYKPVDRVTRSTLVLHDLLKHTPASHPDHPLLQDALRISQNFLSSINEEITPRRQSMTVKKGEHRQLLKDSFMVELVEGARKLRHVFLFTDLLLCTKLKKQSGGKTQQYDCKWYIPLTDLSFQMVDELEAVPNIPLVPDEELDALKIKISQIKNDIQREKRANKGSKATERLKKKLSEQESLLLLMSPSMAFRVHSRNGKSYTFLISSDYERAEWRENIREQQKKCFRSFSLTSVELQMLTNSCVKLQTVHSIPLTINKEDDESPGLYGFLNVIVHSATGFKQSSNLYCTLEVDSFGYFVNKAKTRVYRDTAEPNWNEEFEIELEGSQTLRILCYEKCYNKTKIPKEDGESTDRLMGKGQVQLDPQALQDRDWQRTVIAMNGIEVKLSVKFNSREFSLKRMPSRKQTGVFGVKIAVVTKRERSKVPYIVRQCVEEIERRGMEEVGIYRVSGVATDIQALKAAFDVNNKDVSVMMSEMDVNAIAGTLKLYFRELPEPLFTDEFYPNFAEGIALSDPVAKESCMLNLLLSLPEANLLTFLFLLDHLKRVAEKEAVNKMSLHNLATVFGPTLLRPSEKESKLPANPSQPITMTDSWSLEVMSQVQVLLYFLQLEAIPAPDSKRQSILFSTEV

KSR1 = biological target: T2, KSR1 (UniProt Q8IVT5); experiment: as above
T2 sequence (whole entry): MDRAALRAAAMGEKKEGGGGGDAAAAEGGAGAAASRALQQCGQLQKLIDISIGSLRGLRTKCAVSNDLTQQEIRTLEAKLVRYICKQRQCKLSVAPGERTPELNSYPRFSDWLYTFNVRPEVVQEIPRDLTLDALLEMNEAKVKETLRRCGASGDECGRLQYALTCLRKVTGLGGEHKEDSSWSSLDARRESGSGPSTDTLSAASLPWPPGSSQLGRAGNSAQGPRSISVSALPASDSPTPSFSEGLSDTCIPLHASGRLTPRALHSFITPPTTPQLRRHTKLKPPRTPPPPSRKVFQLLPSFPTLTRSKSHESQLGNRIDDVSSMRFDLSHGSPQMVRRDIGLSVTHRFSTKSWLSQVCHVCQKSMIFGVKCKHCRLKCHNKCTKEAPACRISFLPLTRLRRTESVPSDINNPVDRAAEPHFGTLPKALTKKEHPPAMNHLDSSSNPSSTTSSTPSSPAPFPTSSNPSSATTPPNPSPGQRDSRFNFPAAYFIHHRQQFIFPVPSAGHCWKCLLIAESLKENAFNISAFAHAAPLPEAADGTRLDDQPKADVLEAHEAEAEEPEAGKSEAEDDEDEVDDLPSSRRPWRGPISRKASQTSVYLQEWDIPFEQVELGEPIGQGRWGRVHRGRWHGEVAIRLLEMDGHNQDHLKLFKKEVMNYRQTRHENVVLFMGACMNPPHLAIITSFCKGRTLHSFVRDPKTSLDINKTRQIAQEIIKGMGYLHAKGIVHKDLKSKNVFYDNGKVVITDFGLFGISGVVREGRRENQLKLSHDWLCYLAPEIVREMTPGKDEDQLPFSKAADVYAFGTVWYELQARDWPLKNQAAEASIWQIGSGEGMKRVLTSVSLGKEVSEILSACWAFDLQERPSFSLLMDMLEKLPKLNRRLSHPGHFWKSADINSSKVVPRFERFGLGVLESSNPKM

LOC100128443 = experiment: as above
CDK10 = CDK10 (UniProt Q15131); experiment: as above
CDK10, sequence (Q15131 whole entry): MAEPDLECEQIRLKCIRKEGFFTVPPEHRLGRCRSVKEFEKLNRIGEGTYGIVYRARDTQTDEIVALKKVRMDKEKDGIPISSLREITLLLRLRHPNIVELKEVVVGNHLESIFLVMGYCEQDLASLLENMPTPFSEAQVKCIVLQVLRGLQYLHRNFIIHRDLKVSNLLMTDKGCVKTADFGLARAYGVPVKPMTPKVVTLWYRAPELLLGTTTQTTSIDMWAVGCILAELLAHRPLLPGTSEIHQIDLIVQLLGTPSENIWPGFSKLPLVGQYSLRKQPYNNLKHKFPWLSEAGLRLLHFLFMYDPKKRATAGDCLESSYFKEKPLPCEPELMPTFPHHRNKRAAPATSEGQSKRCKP

BCR [2] = biological target: T1, BCR; experiment: IC50 for competition of kinobeads binding (-log10 M (pIC50))
PDIK1L = PDIK1L (UniProt Q8N165); experiment: as above
PDIK1L, sequence (Q8N165 whole entry): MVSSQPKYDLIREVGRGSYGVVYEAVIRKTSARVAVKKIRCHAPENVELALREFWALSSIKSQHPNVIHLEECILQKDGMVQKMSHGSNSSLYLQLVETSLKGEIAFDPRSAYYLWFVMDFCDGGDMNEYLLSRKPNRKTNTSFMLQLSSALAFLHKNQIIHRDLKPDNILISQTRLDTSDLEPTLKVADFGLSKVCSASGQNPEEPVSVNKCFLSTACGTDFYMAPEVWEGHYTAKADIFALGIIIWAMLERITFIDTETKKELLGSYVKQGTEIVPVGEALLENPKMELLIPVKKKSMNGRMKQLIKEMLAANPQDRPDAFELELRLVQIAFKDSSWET

[3] = lysate: K562 + HEK293 + human placenta lysate mix
[4] = lysate: human PBMC lysate, individual donor, donor: donor 2
[5] = lysate: human PBMC lysate, individual donor, donor: donor 1
[6] = lysate: human PBMC lysate, individual donor, donor: donor 3
[7] = assay format: miniaturized (250 µg protein)
[8] = assay format: standard (5 mg protein)

KIAA1804, sequence (Q5TCX8 whole entry): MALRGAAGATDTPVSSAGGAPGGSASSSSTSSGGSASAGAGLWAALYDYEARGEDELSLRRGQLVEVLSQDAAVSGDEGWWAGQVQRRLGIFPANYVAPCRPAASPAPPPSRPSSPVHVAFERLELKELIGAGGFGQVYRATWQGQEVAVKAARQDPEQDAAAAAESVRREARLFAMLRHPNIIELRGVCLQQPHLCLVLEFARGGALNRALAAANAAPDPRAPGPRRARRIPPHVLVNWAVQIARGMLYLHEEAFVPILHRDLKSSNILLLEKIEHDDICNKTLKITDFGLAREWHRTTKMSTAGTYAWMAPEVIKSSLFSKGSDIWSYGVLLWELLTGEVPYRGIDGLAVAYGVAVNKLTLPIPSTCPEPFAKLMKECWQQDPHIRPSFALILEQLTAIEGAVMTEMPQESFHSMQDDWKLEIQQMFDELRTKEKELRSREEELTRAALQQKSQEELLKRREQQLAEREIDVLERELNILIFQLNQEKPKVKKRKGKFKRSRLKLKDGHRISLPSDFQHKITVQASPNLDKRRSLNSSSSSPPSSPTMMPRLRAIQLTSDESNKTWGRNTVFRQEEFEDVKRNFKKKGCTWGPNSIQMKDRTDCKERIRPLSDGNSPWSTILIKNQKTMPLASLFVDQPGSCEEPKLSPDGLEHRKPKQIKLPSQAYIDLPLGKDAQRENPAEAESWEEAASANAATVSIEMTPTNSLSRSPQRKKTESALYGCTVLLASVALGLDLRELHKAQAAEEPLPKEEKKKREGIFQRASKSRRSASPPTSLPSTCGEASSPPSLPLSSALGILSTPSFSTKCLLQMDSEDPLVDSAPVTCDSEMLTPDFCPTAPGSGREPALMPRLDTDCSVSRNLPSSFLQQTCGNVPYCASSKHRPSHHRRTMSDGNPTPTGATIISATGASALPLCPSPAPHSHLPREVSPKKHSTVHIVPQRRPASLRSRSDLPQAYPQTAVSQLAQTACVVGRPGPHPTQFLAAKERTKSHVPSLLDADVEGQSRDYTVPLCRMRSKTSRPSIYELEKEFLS

## Cc1nc(Nc2ncc(C(=O)Nc3c(C)cccc3Cl)s2)cc(N2CCN(CCO)CC2)n1 [dasatinib]
KIAA1804
  apparent dissociation constant (-log10 M): inactive
BCR [1]
  apparent dissociation constant (-log10 M): 8.52
KSR1; [3]
  apparent dissociation constant (-log10 M): inactive
KSR1; [4]
  apparent dissociation constant (-log10 M): 5.04
LOC100128443; [3]
  apparent dissociation constant (-log10 M): inactive
LOC100128443; [5]
  apparent dissociation constant (-log10 M): inactive
LOC100128443; [4]
  apparent dissociation constant (-log10 M): inactive
LOC100128443; [6]
  apparent dissociation constant (-log10 M): inactive
CDK10; [3]
  apparent dissociation constant (-log10 M): inactive
CDK10; [5]
  apparent dissociation constant (-log10 M): inactive
CDK10; [4]
  apparent dissociation constant (-log10 M): inactive
CDK10; [6]
  apparent dissociation constant (-log10 M): inactive
BCR [2]; [7]
  IC50 (-log10 M): 8.64
BCR [2]; [8]
  IC50 (-log10 M): 8.49
PDIK1L; [7]
  IC50 (-log10 M): 5.7
PDIK1L; [8]
  IC50 (-log10 M): inactive
